Test results: patent US7417156B2, “Orally active, antimalarial, anticancer, artemisinin-derived trioxane dimers” (Johns Hopkins University, priority 2002, dated 2008)

Assays:
HOP-92 = assay: NCI 60 cell line panel screen (SRB); format: cell-based, human; settings: for Log10TGI50: TGI: PG=0; for Log10GI50: Non-Small Cell Lung Cancer, HOP-92
HS 578T = assay: NCI 60 cell line panel screen (SRB); format: cell-based, human; settings: for Log10GI50: Breast Cancer, HS 578T; for Log10TGI50: TGI: PG=0
TK-10 = assay: NCI 60 cell line panel screen (SRB); format: cell-based, human; settings: for Log10GI50: Renal Cancer, TK-10; for Log10TGI50: TGI: PG=0
CCRF-CEM = assay: NCI 60 cell line panel screen (SRB); format: cell-based, human; settings: for Log10TGI50: TGI: PG=0
NCI-H460 = assay: NCI 60 cell line panel screen (SRB); format: cell-based, human; settings: for Log10TGI50: TGI: PG=0
UACC-257 = assay: NCI 60 cell line panel screen (SRB); format: cell-based, human; settings: for Log10GI50: Melanoma, UACC-257; for Log10TGI50: TGI: PG=0
NCI-H23 = assay: NCI 60 cell line panel screen (SRB); format: cell-based, human; settings: for Log10TGI50: TGI: PG=0
OVCAR-8 = assay: NCI 60 cell line panel screen (SRB); format: cell-based, human; settings: for Log10TGI50: TGI: PG=0; for Log10GI50: Ovarian Cancer, OVCAR-8
OVCAR-5 = assay: NCI 60 cell line panel screen (SRB); format: cell-based, human
K-562 = assay: NCI 60 cell line panel screen (SRB); format: cell-based, human; settings: for Log10TGI50: TGI: PG=0
SK-MEL-28 = assay: NCI 60 cell line panel screen (SRB); format: cell-based, human; settings: for Log10GI50: Melanoma, SK-MEL-28; for Log10TGI50: TGI: PG=0
SK-OV-3 = assay: NCI 60 cell line panel screen (SRB); format: cell-based, human
SK-MEL-2 = assay: NCI 60 cell line panel screen (SRB); format: cell-based, human; settings: for Log10GI50: Melanoma, SK-MEL-2; for Log10TGI50: SK-MEL-2 (Melanoma), TGI: PG=0
MOLT-4 = settings: for Log10GI50: Leukemia, MOLT-4; for Log10TGI50: TGI: PG=0
Experimental: Growth Inhibition. […] The screening assay is performed on 96-well microtitre plates. Relatively high initial inoculation densities are used, in order to permit measurement of “time-zero” values and to enhance the screen's ability to detect and provide some differentiation between growth inhibition and cytotoxic response parameters. […] The inoculated microtitre plates are pre-incubated for 24 hours at 37° C. prior to drug additions. The five drug dilutions tested routinely range from 10^−4 to 10^−8 molar. Higher or lower concentration ranges may be selected on a non-routine basis if appropriate solubility and/or prior biological information or other screening data so dictate. Duplicate wells are prepared for all concentrations, (concentration is often denoted by placing brackets around a number); “time-zero” and “no drug” controls are also provided for each test. The minimum amount of compound required for a one-time evaluation in the routine screen can be calculated from the knowledge that each test requires a total of approximately 40 ml (0.04 liter) of cell culture medium containing the highest desired drug concentration. […] After a 48 hour incubation (37° C.) with the test compound, the cells are fixed in situ to the bottoms of the microtitre wells by addition of 50 μl of either 50% trichloroacetic acid (for adherent cell lines) or 80% trichloroacetic acid (for settled cell suspension lines), followed by incubation for 60 minutes at 4° C. The cellular protein in each well is assayed using a sulforhodamine B (SRB) stain procedure. Briefly, after discarding the supernatants, the microtitre plates are washed 5 times with deionized water and air-dried. […] Unbound SRB is removed by washing 5 times with 1% acetic acid. […] SRB is a bright pink anionic dye which, in dilute acetic acid, binds electrostatically to the basic amino acids of TCA-fixed cells. Cryopreserved master stocks of all the lines are maintained, and cultures used for screening are replaced from the master stock after no more than twenty passages in the screening laboratory. The cell line panel consists of 60 lines, organized into nine, disease-related subpanels including leukemia, non-small-cell lung cancer, colon, CNS, melanoma, ovarian, renal, prostate and breast cancers.
At this value the increase from time tzero, in the number or mass of cells in the test well is only 50% as much as the corresponding increase in the control well during this period of the experiment, see Table III. A drug effect of this intensity is interpreted as primary growth inhibition.
At this value the number or mass of cells in the well at the end of the experiment equals the number or mass of cells in the well at time tzero, see Table IV. A drug effect of this intensity is regarded as cytostasis.
At this value, the number or mass of cells in the test well at the end of the experiment is half that at time tzero, see Table V. This is interpreted as cytotoxicity.
Dose response curves, shown in the above mentioned Figures, are obtained by exposing various cancer cell lines to compounds having a known concentration ([log10M]), as discussed in detail above, and then plotting the percentage growth of each cell line for each concentration. […] Percentage growth is determined by dividing the number or mass of cells in the test well by the number or mass of cells in a control well. […] As discussed previously, the five drug dilutions routinely tested range from 10^−4 to […].

RPMI-8226 = assay: NCI 60 cell line panel screen (SRB); format: cell-based, human
SNB-75 = assay: NCI 60 cell line panel screen (SRB); format: cell-based, human; settings: SNB-75 (CNS Cancer)
SF-539 = assay: NCI 60 cell line panel screen (SRB); format: cell-based, human
[1] = HOP-92 (Non-Small Cell Lung Cancer)
[2] = NCI-H460 (Non-Small Cell Lung Cancer)
[3] = NCI-H23 (Non-Small Cell Lung Cancer)

CC1CCC2C(C)C(CC(COCC(=O)O)CC3OC4OC5(C)CCC6C(C)CCC(C3C)C46OO5)OC3OC4(C)CCC1C32OO4 (centres unmarked) [Compound 12b, bis-trioxane O-acetic acid]
Log10TGI50 (HOP-92; [1]): >−4.30 log10M
Log10GI50 (HOP-92): −7.00
Log10GI50 (HS 578T): >−4.30
Log10TGI50 (HS 578T; HS 578T (Breast Cancer)): >−4.30 log10M
Log10GI50 (TK-10): −7.22
Log10TGI50 (TK-10; TK-10 (Renal Cancer)): −5.22 log10M
Log10TGI50 (CCRF-CEM; CCRF-CEM (Leukemia)): >−4.30 log10M
Log10TGI50 (NCI-H460; [2]): >−4.30 log10M
Log10GI50 (UACC-257): >−4.30
Log10TGI50 (UACC-257; UACC-257 (Melanoma)): >4.30 log10M
Log10TGI50 (NCI-H23; [3]): >−4.30 log10M
Log10TGI50 (OVCAR-8; OVCAR-8 (Ovarian Cancer)): >−4.30 log10M
Log10GI50 (OVCAR-8): >−4.30
Log10TGI50 (OVCAR-5; OVCAR-5 (Ovarian Cancer), TGI: PG=0): −6.39 log10M
Log10TGI50 (K-562; K-562 (Leukemia)): >−4.30 log10M
Log10GI50 (SK-MEL-28): −4.92
Log10TGI50 (SK-MEL-28; SK-MEL-28 (Melanoma)): >−4.30 log10M
Log10GI50 (SK-OV-3; Ovarian Cancer, SK-OV-3): >−4.30
Log10TGI50 (SK-OV-3; SK-OV-3 (Ovarian Cancer), TGI: PG=0): >−4.30 log10M
Log10GI50 (SK-MEL-2): −5.62
Log10TGI50 (SK-MEL-2): >−4.30 log10M
Log10GI50 (MOLT-4): −7.66
Log10TGI50 (MOLT-4; MOLT-4 (Leukemia)): >−4.30 log10M

C[C@@H]1CC[C@H]2[C@@H](C)C(CC(O)(COC(=O)CCC(=O)O)CC3OC4O[C@]5(C)CC[C@H]6[C@H](C)CC[C@@H]([C@H]3C)C46OO5)OC3O[C@]4(C)CCC1C32OO4 (some centres unmarked) [Compound 9, tertiary alcohol primary succinate ester]
Log10LC50 (HOP-92; HOP-92 (Non-Small Cell Lung Cancer), LC50: PG=−50): >−4.30 log10M
Log10TGI50 (HOP-92; [1]): >−4.30 log10M
Log10GI50 (HOP-92): <−8.30
Log10GI50 (HS 578T): −4.36
Log10LC50 (HS 578T; HS 578T (Breast Cancer), LC50: PG=−50): >−4.30 log10M
Log10TGI50 (HS 578T; HS 578T (Breast Cancer)): >−4.30 log10M
Log10GI50 (TK-10): <−8.30
Log10LC50 (TK-10; TK-10 (Renal Cancer), LC50: PG=−50): >−4.30 log10M
Log10TGI50 (TK-10; TK-10 (Renal Cancer)): −4.60 log10M
Log10LC50 (CCRF-CEM; CCRF-CEM (Leukemia), LC50: PG=−50): >−4.30 log10M
Log10TGI50 (CCRF-CEM; CCRF-CEM (Leukemia)): >−4.30 log10M
Log10GI50 (CCRF-CEM; Leukemia, CCRF-CEM): <−8.30
Log10GI50 (RPMI-8226; Leukemia, RPMI-8226): <−8.30
Log10LC50 (RPMI-8226; RPMI-8226 (Leukemia), LC50: PG=−50): >−4.30 log10M
Log10TGI50 (RPMI-8226; RPMI-8226 (Leukemia), TGI: PG=0): >−4.30 log10M
Log10LC50 (NCI-H460; NCI-H460 (Non-Small Cell Lung Cancer), LC50: PG=−50): >−4.30 log10M
Log10TGI50 (NCI-H460; [2]): >−4.30 log10M
Log10GI50 (NCI-H460; Non-Small Cell Lung Cancer, NCI-H460): <−8.30
Log10GI50 (UACC-257): −4.89
Log10LC50 (UACC-257; UACC-257 (Melanoma), LC50: PG=−50): >−4.30 log10M
Log10TGI50 (UACC-257; UACC-257 (Melanoma)): >−4.30 log10M
Log10LC50 (NCI-H23; NCI-H23 (Non-Small Cell Lung Cancer), LC50: PG=−50): >−4.30 log10M
Log10TGI50 (NCI-H23; [3]): −4.65 log10M
Log10GI50 (NCI-H23; Non-Small Cell Lung Cancer, NCI-H23): <−8.30
Log10LC50 (OVCAR-8; OVCAR-8 (Ovarian Cancer), LC50: PG=−50): >−4.30 log10M
Log10TGI50 (OVCAR-8; OVCAR-8 (Ovarian Cancer)): >−4.30 log10M
Log10GI50 (OVCAR-8): −5.12
Log10LC50 (OVCAR-5; OVCAR-5 (Ovarian Cancer), LC50: PG=−50): >−4.30 log10M
Log10GI50 (OVCAR-5; Ovarian Cancer, OVCAR-5): <−8.30
Log10LC50 (K-562; K-562 (Leukemia), LC50: PG=−50): >−4.30 log10M
Log10TGI50 (K-562; K-562 (Leukemia)): >−4.30 log10M
Log10GI50 (K-562; Leukemia, K-562): −8.30
Log10LC50 (SNB-75; LC50: PG=−50): >−4.30 log10M
Log10TGI50 (SNB-75; TGI: PG=0): >−4.30 log10M
Log10GI50 (SK-MEL-28): <−8.30
Log10LC50 (SK-MEL-28; SK-MEL-28 (Melanoma), LC50: PG=−50): >−4.30 log10M
Log10TGI50 (SK-MEL-28; SK-MEL-28 (Melanoma)): >−4.30 log10M
Log10GI50 (SK-MEL-2): −4.88
Log10LC50 (SK-MEL-2; SK-MEL2 (Melanoma), LC50: PG=−50): >−4.30 log10M
Log10TGI50 (SK-MEL-2): >−4.30 log10M
Log10GI50 (SF-539; CNS Cancer, SF-539): −4.90
Log10LC50 (SF-539; SF-539 (CNS Cancer), LC50: PG=−50): >−4.30 log10M
Log10TGI50 (SF-539; SF-539 (CNS Cancer), TGI: PG=0): −4.50 log10M
Log10GI50 (MOLT-4): −5.15
Log10LC50 (MOLT-4; MOLT-4 (Leukemia), LC50: PG=−50): >−4.30 log10M
Log10TGI50 (MOLT-4; MOLT-4 (Leukemia)): >−4.30 log10M
drug concentration for primary growth inhibition (percentage growth +50) (MOLT-4; MOLT-4, from dose response curves FIGS. 7a-7i): < 10^−5 molar
concentration for cytotoxicity (percentage growth −50) (MOLT-4; human, 48 h): greater than 10^−4 M
